Assay results reported in patent US7495027B2, “3-aryl-4-hydroxyfuranone compounds and the human and animal health use thereof” (Wyeth, priority 2003, dated 2009).
Converted amounts (≈) assume the structure as drawn.

Molecular target: T1, S. aureus UDP-N-acetylglucosamine enolpyruvoyl transferase, MurA (Staphylococcus aureus, UniProt P84058)
T1 sequence (P84058 1-421): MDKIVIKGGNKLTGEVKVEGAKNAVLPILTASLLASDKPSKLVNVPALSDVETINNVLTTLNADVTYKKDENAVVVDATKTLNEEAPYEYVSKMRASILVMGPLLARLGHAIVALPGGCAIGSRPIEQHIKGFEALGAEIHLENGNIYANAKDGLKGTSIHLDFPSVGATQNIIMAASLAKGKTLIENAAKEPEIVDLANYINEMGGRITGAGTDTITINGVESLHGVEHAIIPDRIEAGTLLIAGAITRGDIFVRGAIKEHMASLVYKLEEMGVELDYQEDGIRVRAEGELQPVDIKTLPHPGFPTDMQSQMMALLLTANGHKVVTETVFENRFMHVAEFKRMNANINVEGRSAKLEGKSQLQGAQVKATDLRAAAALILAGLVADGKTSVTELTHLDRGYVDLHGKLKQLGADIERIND
Experiment: Inhibitory activity against MurA (S. aureus)
Assay type: biochemical
Conditions: (S) S. aureus enzyme
Protocol: Evaluation of the Inhibitory Activity of Test Compounds Against Enzymes which Catalyze Bacterial Cell Wall Biosynthesis
S. aureus and E. coli UDP-N-acetylglucosamine enolpyruvoyl transferase, MurA
Preparation of Enzyme Solution:
The enzyme solution is prepared by admixing the following: 50 mM Tris/HCl pH 8.0, […] 1 M Tris, 5 mM DTT, […] 1 M DTT, 20% Glycerol 4 ml 50% Glycerol, add water to 10 ml.
Preparation of Stop Solution:
The stop solution is prepared by mixing the following: 4.2% ammonium molybdate in 4N HCl, 8.4 g/200 ml 4N HCl, 0.045% malachite green, 90 mg/200 ml water, then stir 1 part ammonium molybdate with 2 parts malachite green for 30 min.
A procedure similar to that described by C. T. Walsh in Biochemistry 33, 10646-10651, is used to evaluate the inhibitory activity of test compounds against MurA, the enzyme which catalyzes the first step of bacterial cell wall biosynthesis. Experiments are performed by adding a solution of test compound (in a mixture of dimethylsulfoxide and water) and an enzyme solution to a well. After a pre-incubation period of 10 mintues at 37° C., Tris/BME buffer and assay buffer are added. A start point optical density (OD0) reading is taken at 340 nm immediately following the addition of assay buffer. After incubation for 1 hr at 37° C., the stop solution is added and the color is allowed to develop for 30 minutes. An end point OD1 reading at […] is then taken. […]

Compound	IC50	MurA IC50
Cc1cc(/C=C2\OC(=O)C(c3cccc(Cl)c3)=C2O)ccc1-c1ccccc1C(F)(F)F [Example 26]	8.76 µM	
Cc1cc(/C=C2\OC(=O)C(c3cc(Cl)cc(Cl)c3)=C2O)ccc1-c1ccccc1C(F)(F)F [Example 27]	4.07 µM	
Cc1ccccc1-c1ccc(/C=C2\OC(=O)C(c3cccc(Cl)c3)=C2O)cc1C [Example 28]	24.8 µM	
Cc1ccccc1-c1ccc(/C=C2\OC(=O)C(c3cc(Cl)cc(Cl)c3)=C2O)cc1C [Example 29]	4.57 µM	
Cc1cc(/C=C2\OC(=O)C(c3cccc(Cl)c3)=C2O)ccc1-c1ccccc1Cl [Example 30]	7.09 µM	
Cc1cc(C=C2OC(=O)C(c3cc(Cl)cc(Cl)c3)=C2O)ccc1-c1ccccc1Cl [Example 31]		2 (S) μg/mL

Molecular target: E. coli UDP-N-acetylglucosamine enolpyruvoyl transferase, MurA (Escherichia coli, UniProt P0A749)
Experiment: biochemical
Conditions: (E) E. coli enzyme
In short: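 Enzyme in 50 mM Tris/HCl pH 8.0 with 5 mM DTT and 20% glycerol was pre-incubated 10 min at 37° C with test compound in DMSO/water. Tris/BME and assay buffer then started the 1 hr, 37° C reaction, with a baseline 340 nm reading taken at start. Stop solution followed, and colour developed 30 minutes.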

Sequence of E. coli UDP-N-acetylglucosamine enolpyruvoyl transferase, MurA (P0A749 whole entry): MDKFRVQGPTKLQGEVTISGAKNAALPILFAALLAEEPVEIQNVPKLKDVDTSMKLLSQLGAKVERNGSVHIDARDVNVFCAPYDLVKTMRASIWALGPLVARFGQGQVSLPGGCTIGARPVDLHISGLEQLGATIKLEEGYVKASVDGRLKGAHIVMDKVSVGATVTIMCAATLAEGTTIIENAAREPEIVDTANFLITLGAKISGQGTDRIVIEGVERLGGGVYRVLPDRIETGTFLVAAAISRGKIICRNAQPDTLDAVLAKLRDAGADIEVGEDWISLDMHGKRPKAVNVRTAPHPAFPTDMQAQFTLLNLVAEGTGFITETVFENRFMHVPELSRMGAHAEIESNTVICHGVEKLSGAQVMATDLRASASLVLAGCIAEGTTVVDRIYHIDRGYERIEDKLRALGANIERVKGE

Compound	IC50
O=C1O/C(=C\c2ccc(C(F)(F)F)cc2)C(O)=C1c1ccc(-c2ccccc2)cc1 [R=H, R1=4-(biphenyl), R2=4-CF3—C6H4]	46.5 µM
O=C1O/C(=C\c2ccc(-c3ccc(Cl)cc3)cc2)C(O)=C1c1ccc(Cl)cc1 [R=H, R1=4-Cl—C6H4, R2=4-(4′-Cl-biphenyl)]	14.7 µM
O=C1O/C(=C\c2cccc3ccccc23)C(O)=C1c1ccc(-c2ccccc2)cc1 [R=H, R1=4-biphenyl, R2=1-naphthyl]	58.9 µM

Molecular target: T2, S. aureus Uridine-diphosphate-N-acetylmuramoyl-L-alanine: D-glutamate liease, MurD (Staphylococcus aureus, UniProt Q2FZ92)
T2 sequence (Q2FZ92 1-449): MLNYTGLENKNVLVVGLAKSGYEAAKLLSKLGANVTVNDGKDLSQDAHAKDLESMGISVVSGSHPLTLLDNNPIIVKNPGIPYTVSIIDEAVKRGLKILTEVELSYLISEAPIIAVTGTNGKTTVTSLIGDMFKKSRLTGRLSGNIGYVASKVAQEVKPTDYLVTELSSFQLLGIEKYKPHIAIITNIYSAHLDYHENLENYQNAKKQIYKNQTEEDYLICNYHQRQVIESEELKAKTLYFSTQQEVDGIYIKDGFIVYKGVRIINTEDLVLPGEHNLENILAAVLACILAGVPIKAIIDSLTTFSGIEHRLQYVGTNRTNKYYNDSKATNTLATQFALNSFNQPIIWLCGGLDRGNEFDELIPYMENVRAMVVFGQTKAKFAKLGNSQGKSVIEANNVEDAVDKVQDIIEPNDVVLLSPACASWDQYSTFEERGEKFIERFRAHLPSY
Experiment: biochemical
Conditions: (S) S. aureus enzyme
In short: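 Test solutions, 10 mg/mL stocks in DMSO, were brought to 100 μg/mL with 50 mM Tris/HCl (pH 8.5). Their inhibition of MurD, the enzyme of the fourth cell wall biosynthesis step, was measured.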

Compound	IC50	MurD IC50
Cc1cc(/C=C2\OC(=O)C(c3cccc(Cl)c3)=C2O)ccc1-c1ccccc1C(F)(F)F [Example 26]	19.7 µM	
Cc1cc(/C=C2\OC(=O)C(c3cc(Cl)cc(Cl)c3)=C2O)ccc1-c1ccccc1C(F)(F)F [Example 27]	48.9 µM	
Cc1ccccc1-c1ccc(/C=C2\OC(=O)C(c3cccc(Cl)c3)=C2O)cc1C [Example 28]	> 62.1 µM	
Cc1ccccc1-c1ccc(/C=C2\OC(=O)C(c3cc(Cl)cc(Cl)c3)=C2O)cc1C [Example 29]	38.9 µM	
Cc1cc(/C=C2\OC(=O)C(c3cccc(Cl)c3)=C2O)ccc1-c1ccccc1Cl [Example 30]	> 59.1 µM	
Cc1cc(C=C2OC(=O)C(c3cc(Cl)cc(Cl)c3)=C2O)ccc1-c1ccccc1Cl [Example 31]		10 (S) μg/mL
O=C1O/C(=C\c2ccc(C(F)(F)F)cc2)C(O)=C1c1ccc(-c2ccccc2)cc1 [R=H, R1=4-(biphenyl), R2=4-CF3—C6H4]	> 61.2 µM	
O=C1O/C(=C\c2ccc(-c3ccc(Cl)cc3)cc2)C(O)=C1c1ccc(Cl)cc1 [R=H, R1=4-Cl—C6H4, R2=4-(4′-Cl-biphenyl)]	19.5 µM	
O=C1O/C(=C\c2cccc3ccccc23)C(O)=C1c1ccc(-c2ccccc2)cc1 [R=H, R1=4-biphenyl, R2=1-naphthyl]	38.4 µM	

Test system: staphylococci
Experiment: Minimum inhibitory concentration, microdilution broth method, staphylococci
Assay type: cell-based
Conditions: S. aureus GC 1131; Mueller-Hinton broth, 18-22 hours at 35° C.
In short: (§1)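 Broth microdilution per NCCLS M7-A5 (2000). Staphylococci and enterococci grown in Mueller-Hinton broth; streptococci in Mueller-Hinton broth with 5% horse blood (LHB). Panel includes recent clinical isolates resistant to methicillin, penicillin and/or vancomycin.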

Compound	MIC S. aureus GC 1131
Cc1cc(C=C2OC(=O)C(c3cc(Cl)cc(Cl)c3)=C2O)ccc1-c1ccccc1Cl [Example 31]	0.5 mg/L (≈ 1.09 µM)

Same assay, conditions: S. aureus GC 4543; Mueller-Hinton broth, 18-22 hours at 35° C.

Compound	MIC S. aureus GC 4543
Cc1cc(C=C2OC(=O)C(c3cc(Cl)cc(Cl)c3)=C2O)ccc1-c1ccccc1Cl [Example 31]	0.25 mg/L (≈ 0.546 µM)

Same assay, conditions: Staphylococcus aureus, S. aureus GC 1131; Mueller-Hinton broth, 18-22 hours at 35° C.; read-out: MIC S. aureus GC 1131

Compound	MIC
Cc1cc(/C=C2\OC(=O)C(c3cccc(Cl)c3)=C2O)ccc1-c1ccccc1C(F)(F)F [Example 26]	2 mg/L (≈ 4.38 µM)
Cc1cc(/C=C2\OC(=O)C(c3cc(Cl)cc(Cl)c3)=C2O)ccc1-c1ccccc1C(F)(F)F [Example 27]	0.5 mg/L (≈ 1.02 µM)
Cc1ccccc1-c1ccc(/C=C2\OC(=O)C(c3cccc(Cl)c3)=C2O)cc1C [Example 28]	1 mg/L (≈ 2.48 µM)
Cc1ccccc1-c1ccc(/C=C2\OC(=O)C(c3cc(Cl)cc(Cl)c3)=C2O)cc1C [Example 29]	0.5 mg/L (≈ 1.14 µM)
Cc1cc(/C=C2\OC(=O)C(c3cccc(Cl)c3)=C2O)ccc1-c1ccccc1Cl [Example 30]	2 mg/L (≈ 4.72 µM)
O=C1O/C(=C\c2ccc(C(F)(F)F)cc2)C(O)=C1c1ccc(-c2ccccc2)cc1 [R=H, R1=4-(biphenyl), R2=4-CF3—C6H4]	8 mg/L (≈ 19.6 µM)
O=C1O/C(=C\c2ccc(-c3ccc(Cl)cc3)cc2)C(O)=C1c1ccc(Cl)cc1 [R=H, R1=4-Cl—C6H4, R2=4-(4′-Cl-biphenyl)]	16 mg/L (≈ 39.1 µM)
O=C1O/C(=C\c2cccc3ccccc23)C(O)=C1c1ccc(-c2ccccc2)cc1 [R=H, R1=4-biphenyl, R2=1-naphthyl]	8 mg/L (≈ 20.5 µM)

Same assay, conditions: Staphylococcus aureus, S. aureus GC 4543; Mueller-Hinton broth, 18-22 hours at 35° C.; read-out: MIC S. aureus GC 4543

Compound	MIC
Cc1cc(/C=C2\OC(=O)C(c3cccc(Cl)c3)=C2O)ccc1-c1ccccc1C(F)(F)F [Example 26]	1 mg/L (≈ 2.19 µM)
Cc1cc(/C=C2\OC(=O)C(c3cc(Cl)cc(Cl)c3)=C2O)ccc1-c1ccccc1C(F)(F)F [Example 27]	0.5 mg/L (≈ 1.02 µM)
Cc1ccccc1-c1ccc(/C=C2\OC(=O)C(c3cccc(Cl)c3)=C2O)cc1C [Example 28]	0.5 mg/L (≈ 1.24 µM)
Cc1ccccc1-c1ccc(/C=C2\OC(=O)C(c3cc(Cl)cc(Cl)c3)=C2O)cc1C [Example 29]	0.5 mg/L (≈ 1.14 µM)
Cc1cc(/C=C2\OC(=O)C(c3cccc(Cl)c3)=C2O)ccc1-c1ccccc1Cl [Example 30]	1 mg/L (≈ 2.36 µM)
O=C1O/C(=C\c2ccc(C(F)(F)F)cc2)C(O)=C1c1ccc(-c2ccccc2)cc1 [R=H, R1=4-(biphenyl), R2=4-CF3—C6H4]	8 mg/L (≈ 19.6 µM)
O=C1O/C(=C\c2ccc(-c3ccc(Cl)cc3)cc2)C(O)=C1c1ccc(Cl)cc1 [R=H, R1=4-Cl—C6H4, R2=4-(4′-Cl-biphenyl)]	8 mg/L (≈ 19.5 µM)
O=C1O/C(=C\c2cccc3ccccc23)C(O)=C1c1ccc(-c2ccccc2)cc1 [R=H, R1=4-biphenyl, R2=1-naphthyl]	4 mg/L (≈ 10.2 µM)

Test system: enterococci
Experiment: Minimum inhibitory concentration, microdilution broth method, enterococci
Assay type: cell-based
Conditions: E. faecalis GC 2242; Mueller-Hinton broth, 18-22 hours at 35° C.
In short: as §1

Compound	MIC E. faecalis GC 2242
Cc1cc(C=C2OC(=O)C(c3cc(Cl)cc(Cl)c3)=C2O)ccc1-c1ccccc1Cl [Example 31]	1 mg/L (≈ 2.18 µM)

Same assay, conditions: E. faecalis GC 4555; Mueller-Hinton broth, 18-22 hours at 35° C.

Compound	MIC E. faecalis GC 4555
Cc1cc(C=C2OC(=O)C(c3cc(Cl)cc(Cl)c3)=C2O)ccc1-c1ccccc1Cl [Example 31]	2 mg/L (≈ 4.37 µM)

Same assay, conditions: Enterococcus faecalis, E. faecalis GC 2242; Mueller-Hinton broth, 18-22 hours at 35° C.; read-out: MIC E. faecalis GC 2242

Compound	MIC
Cc1cc(/C=C2\OC(=O)C(c3cccc(Cl)c3)=C2O)ccc1-c1ccccc1C(F)(F)F [Example 26]	2 mg/L (≈ 4.38 µM)
Cc1cc(/C=C2\OC(=O)C(c3cc(Cl)cc(Cl)c3)=C2O)ccc1-c1ccccc1C(F)(F)F [Example 27]	1 mg/L (≈ 2.04 µM)
Cc1ccccc1-c1ccc(/C=C2\OC(=O)C(c3cccc(Cl)c3)=C2O)cc1C [Example 28]	2 mg/L (≈ 4.96 µM)
Cc1ccccc1-c1ccc(/C=C2\OC(=O)C(c3cc(Cl)cc(Cl)c3)=C2O)cc1C [Example 29]	0.5 mg/L (≈ 1.14 µM)
Cc1cc(/C=C2\OC(=O)C(c3cccc(Cl)c3)=C2O)ccc1-c1ccccc1Cl [Example 30]	4 mg/L (≈ 9.45 µM)
O=C1O/C(=C\c2ccc(C(F)(F)F)cc2)C(O)=C1c1ccc(-c2ccccc2)cc1 [R=H, R1=4-(biphenyl), R2=4-CF3—C6H4]	2 mg/L (≈ 4.9 µM)
O=C1O/C(=C\c2ccc(-c3ccc(Cl)cc3)cc2)C(O)=C1c1ccc(Cl)cc1 [R=H, R1=4-Cl—C6H4, R2=4-(4′-Cl-biphenyl)]	2 mg/L (≈ 4.89 µM)
O=C1O/C(=C\c2cccc3ccccc23)C(O)=C1c1ccc(-c2ccccc2)cc1 [R=H, R1=4-biphenyl, R2=1-naphthyl]	4 mg/L (≈ 10.2 µM)

Same assay, conditions: Enterococcus faecalis, E. faecalis GC 4555; Mueller-Hinton broth, 18-22 hours at 35° C.; read-out: MIC E. faecalis GC 4555

Compound	MIC
Cc1cc(/C=C2\OC(=O)C(c3cccc(Cl)c3)=C2O)ccc1-c1ccccc1C(F)(F)F [Example 26]	4 mg/L (≈ 8.76 µM)
Cc1cc(/C=C2\OC(=O)C(c3cc(Cl)cc(Cl)c3)=C2O)ccc1-c1ccccc1C(F)(F)F [Example 27]	2 mg/L (≈ 4.07 µM)
Cc1ccccc1-c1ccc(/C=C2\OC(=O)C(c3cccc(Cl)c3)=C2O)cc1C [Example 28]	4 mg/L (≈ 9.93 µM)
Cc1ccccc1-c1ccc(/C=C2\OC(=O)C(c3cc(Cl)cc(Cl)c3)=C2O)cc1C [Example 29]	2 mg/L (≈ 4.57 µM)
Cc1cc(/C=C2\OC(=O)C(c3cccc(Cl)c3)=C2O)ccc1-c1ccccc1Cl [Example 30]	4 mg/L (≈ 9.45 µM)
O=C1O/C(=C\c2ccc(C(F)(F)F)cc2)C(O)=C1c1ccc(-c2ccccc2)cc1 [R=H, R1=4-(biphenyl), R2=4-CF3—C6H4]	8 mg/L (≈ 19.6 µM)
O=C1O/C(=C\c2ccc(-c3ccc(Cl)cc3)cc2)C(O)=C1c1ccc(Cl)cc1 [R=H, R1=4-Cl—C6H4, R2=4-(4′-Cl-biphenyl)]	8 mg/L (≈ 19.5 µM)
O=C1O/C(=C\c2cccc3ccccc23)C(O)=C1c1ccc(-c2ccccc2)cc1 [R=H, R1=4-biphenyl, R2=1-naphthyl]	16 mg/L (≈ 41 µM)
